Test results published in BindingDB's records for doi:10.1021/jm0209984 (Universit&#224, 2003).

Experiment: Concentration required to achieve 50% protection of MT-4 cell from the HIV-1 induced cytopathogenicity was determined by the MTT method

O=C(c1ccc(Cl)cc1Cl)N(C(=S)OCCOc1ccccc1)c1ccccc1 [(2,4-Dichloro-benzoyl)-phenyl-thiocarbamic acid O-(2-phenoxy-ethyl) ester]
EC50: 11.6 µM

O=C1c2ccccc2C(=O)N1CCOC(=S)N(C(=O)c1cccs1)c1ccccc1Cl [(2-Chloro-phenyl)-(thiophene-2-carbonyl)-thiocarbamic acid O-[2-(1,3-dioxo-1,3-dihydro-isoindol-2-yl)-ethyl] ester]
EC50: 11 µM

CCc1ccccc1N(C(=O)c1cccs1)C(=S)OCCN1C(=O)c2ccccc2C1=O [(2-Ethyl-phenyl)-(thiophene-2-carbonyl)-thiocarbamic acid O-[2-(1,3-dioxo-1,3-dihydro-isoindol-2-yl)-ethyl] ester]
EC50: 11 µM

COc1ccccc1N(C(=O)c1cccs1)C(=S)OCCN1C(=O)c2ccccc2C1=O [(2-Methoxy-phenyl)-(thiophene-2-carbonyl)-thiocarbamic acid O-[2-(1,3-dioxo-1,3-dihydro-isoindol-2-yl)-ethyl] ester]
EC50: 11 µM

CC(COc1ccccc1)OC(=S)N(C(=O)COc1ccccc1)c1ccccc1 (configuration not stated) [(2-Phenoxy-acetyl)-phenyl-thiocarbamic acid O-(1-methyl-2-phenoxy-ethyl) ester]
EC50: 1.4 µM

O=C(COc1ccccc1)N(C(=S)OCCOc1ccccc1)c1ccccc1 [(2-Phenoxy-acetyl)-phenyl-thiocarbamic acid O-(2-phenoxy-ethyl) ester]
EC50: 6 µM

O=C(c1cc(Cl)cc(Cl)c1)N(C(=S)OCCOc1ccccc1)c1ccccc1 [(3,5-Dichloro-benzoyl)-phenyl-thiocarbamic acid O-(2-phenoxy-ethyl) ester]
EC50: 8.8 µM

CC(=O)c1cccc(N(C(=O)c2cccs2)C(=S)OCCN2C(=O)c3ccccc3C2=O)c1 [(3-Acetyl-phenyl)-(thiophene-2-carbonyl)-thiocarbamic acid O-[2-(1,3-dioxo-1,3-dihydro-isoindol-2-yl)-ethyl] ester]
EC50: 6 µM

O=C1c2ccccc2C(=O)N1CCOC(=S)N(C(=O)c1cccs1)c1cccc(Br)c1 [(3-Bromo-phenyl)-(thiophene-2-carbonyl)-thiocarbamic acid O-[2-(1,3-dioxo-1,3-dihydro-isoindol-2-yl)-ethyl] ester]
EC50: 1.2 µM

CC(COc1ccccc1)OC(=S)N(C(=O)c1cccs1)c1cccc(Cl)c1 (configuration not stated) [(3-Chloro-phenyl)-(thiophene-2-carbonyl)-thiocarbamic acid O-(1-methyl-2-phenoxy-ethyl) ester]
EC50: 11 µM

O=C1c2ccccc2C(=O)N1CCOC(=S)N(C(=O)c1cccs1)c1cccc(Cl)c1 [(3-Chloro-phenyl)-(thiophene-2-carbonyl)-thiocarbamic acid O-[2-(1,3-dioxo-1,3-dihydro-isoindol-2-yl)-ethyl] ester]
EC50: 6 µM

O=C1c2ccccc2C(=O)N1CCOC(=S)N(C(=O)c1cccs1)c1cccc(F)c1 [(3-Fluoro-phenyl)-(thiophene-2-carbonyl)-thiocarbamic acid O-[2-(1,3-dioxo-1,3-dihydro-isoindol-2-yl)-ethyl] ester]
EC50: 11 µM

COc1cccc(N(C(=O)c2cccs2)C(=S)OCCN2C(=O)c3ccccc3C2=O)c1 [(3-Methoxy-phenyl)-(thiophene-2-carbonyl)-thiocarbamic acid O-[2-(1,3-dioxo-1,3-dihydro-isoindol-2-yl)-ethyl] ester]
EC50: 3.5 µM

CC(COc1ccccc1)OC(=S)N(C(=O)c1cccc([N+](=O)[O-])c1)c1ccccc1 (configuration not stated) [(3-Nitro-benzoyl)-phenyl-thiocarbamic acid O-(1-methyl-2-phenoxy-ethyl) ester]
EC50: 3.6 µM

O=C1c2ccccc2C(=O)N1CCOC(=S)N(C(=O)c1cccs1)c1cccc([N+](=O)[O-])c1 [(3-Nitro-phenyl)-(thiophene-2-carbonyl)-thiocarbamic acid O-[2-(1,3-dioxo-1,3-dihydro-isoindol-2-yl)-ethyl] ester]
EC50: 0.38 µM

O=C(c1ccc(Cl)c([N+](=O)[O-])c1)N(C(=S)OCCOc1ccccc1)c1ccccc1 [(4-Chloro-3-nitro-benzoyl)-phenyl-thiocarbamic acid O-(2-phenoxy-ethyl) ester]
EC50: 7.6 µM

O=C(c1ccc(Cl)cc1)N(C(=S)OCCOc1ccccc1)c1ccccc1 [(4-Chloro-benzoyl)-phenyl-thiocarbamic acid O-(2-phenoxy-ethyl) ester]
EC50: 10.3 µM

O=C(c1ccc(Cl)cc1)N(C(=S)OCCc1ccccc1)c1ccccc1 [(4-Chloro-benzoyl)-phenyl-thiocarbamic acid O-phenethyl ester]
EC50: 4 µM

CC(COc1ccccc1)OC(=S)N(C(=O)c1cccs1)c1ccc(Cl)cc1 (configuration not stated) [(4-Chloro-phenyl)-(thiophene-2-carbonyl)-thiocarbamic acid O-(1-methyl-2-phenoxy-ethyl) ester]
EC50: 11 µM

CCN(CC)c1ccc(N(C(=O)c2cccs2)C(=S)OCCN2C(=O)c3ccccc3C2=O)cc1 [(4-Diethylamino-phenyl)-(thiophene-2-carbonyl)-thiocarbamic acid O-[2-(1,3-dioxo-1,3-dihydro-isoindol-2-yl)-ethyl] ester]
EC50: 11 µM

CCc1ccc(N(C(=O)c2ccco2)C(=S)OCCN2C(=O)c3ccccc3C2=O)cc1 [(4-Ethyl-phenyl)-(furan-2-carbonyl)-thiocarbamic acid O-[2-(1,3-dioxo-1,3-dihydro-isoindol-2-yl)-ethyl] ester]
EC50: 0.03 µM

O=C1c2ccccc2C(=O)N1CCOC(=S)N(C(=O)c1cccs1)c1ccc(F)cc1 [(4-Fluoro-phenyl)-(thiophene-2-carbonyl)-thiocarbamic acid O-[2-(1,3-dioxo-1,3-dihydro-isoindol-2-yl)-ethyl] ester]
EC50: 0.1 µM

O=C1c2ccccc2C(=O)N1CCOC(=S)N(C(=O)c1cccs1)c1ccc(I)cc1 [(4-Iodo-phenyl)-(thiophene-2-carbonyl)-thiocarbamic acid O-[2-(1,3-dioxo-1,3-dihydro-isoindol-2-yl)-ethyl] ester]
EC50: 0.01 µM

Cc1ccc(C(=O)N(C(=S)OCCOc2ccccc2)c2ccccc2)cc1 [(4-Methyl-benzoyl)-phenyl-thiocarbamic acid O-(2-phenoxy-ethyl) ester]
EC50: 9.9 µM

CC(COc1ccccc1)OC(=S)N(C(=O)c1cccs1)c1ccc([N+](=O)[O-])cc1 (configuration not stated) [(4-Nitro-phenyl)-(thiophene-2-carbonyl)-thiocarbamic acid O-(1-methyl-2-phenoxy-ethyl) ester]
EC50: 6 µM

O=C1c2ccccc2C(=O)N1CCOC(=S)N(C(=O)c1cccs1)c1ccc([N+](=O)[O-])cc1 [(4-Nitro-phenyl)-(thiophene-2-carbonyl)-thiocarbamic acid O-[2-(1,3-dioxo-1,3-dihydro-isoindol-2-yl)-ethyl] ester]
EC50: 0.01 µM

O=C1c2ccccc2C(=O)N1CCOC(=S)N(C(=O)c1ccco1)c1ccc([N+](=O)[O-])cc1 [(Furan-2-carbonyl)-(4-nitro-phenyl)-thiocarbamic acid O-[2-(1,3-dioxo-1,3-dihydro-isoindol-2-yl)-ethyl] ester]
EC50: 0.008 µM

CC(COc1ccccc1)OC(=S)N(C(=O)c1ccco1)c1ccccc1 (configuration not stated) [(Furan-2-carbonyl)-phenyl-thiocarbamic acid O-(1-methyl-2-phenoxy-ethyl) ester]
EC50: 1.3 µM

O=C(c1ccco1)N(C(=S)OCCOc1ccccc1)c1ccccc1 [(Furan-2-carbonyl)-phenyl-thiocarbamic acid O-(2-phenoxy-ethyl) ester]
EC50: 8.4 µM

O=C(c1ccco1)N(C(=S)OCCc1ccccc1)c1ccccc1 [(Furan-2-carbonyl)-phenyl-thiocarbamic acid O-phenethyl ester]
EC50: 4.3 µM

O=C1c2ccccc2C(=O)N1CCOC(=S)N(C(=O)c1cccs1)c1cccc(C(F)(F)F)c1 [(Thiophene-2-carbonyl)-(3-trifluoromethyl-phenyl)-thiocarbamic acid O-[2-(1,3-dioxo-1,3-dihydro-isoindol-2-yl)-ethyl] ester]
EC50: 11 µM

Cc1cccc(N(C(=O)c2cccs2)C(=S)OCCN2C(=O)c3ccccc3C2=O)c1 [(Thiophene-2-carbonyl)-m-tolyl-thiocarbamic acid O-[2-(1,3-dioxo-1,3-dihydro-isoindol-2-yl)-ethyl] ester]
EC50: 10 µM

Cc1ccccc1N(C(=O)c1cccs1)C(=S)OCCN1C(=O)c2ccccc2C1=O [(Thiophene-2-carbonyl)-o-tolyl-thiocarbamic acid O-[2-(1,3-dioxo-1,3-dihydro-isoindol-2-yl)-ethyl] ester]
EC50: 11 µM

Cc1ccc(N(C(=O)c2cccs2)C(=S)OCCN2C(=O)c3ccccc3C2=O)cc1 [(Thiophene-2-carbonyl)-p-tolyl-thiocarbamic acid O-[2-(1,3-dioxo-1,3-dihydro-isoindol-2-yl)-ethyl] ester]
EC50: 0.4 µM

CC(=O)Oc1ccccc1C(=O)N(C(=S)OCCOc1ccccc1)c1ccccc1 [Acetic acid 2-(2-phenoxy-ethoxythiocarbonyl)-phenyl-aminocarbonyl)-phenyl ester]
EC50: 9.5 µM

O=C1c2ccccc2C(=O)N1CCOC(=S)N(C(=O)c1ccccc1)c1ccc(Br)cc1 [Benzoyl-(4-bromo-phenyl)-thiocarbamic acid O-[2-(1,3-dioxo-1,3-dihydro-isoindol-2-yl)-ethyl] ester]
EC50: 0.035 µM

O=C(c1ccccc1)N(C(=S)OCCOc1ccccc1)c1ccc(F)cc1 [Benzoyl-(4-fluoro-phenyl)-thiocarbamic acid O-(2-phenoxy-ethyl) ester]
EC50: 4 µM

O=C(c1ccccc1)N(C(=S)OCCOc1ccccc1)C1CCCCC1 [Benzoyl-cyclohexyl-thiocarbamic acid O-(2-phenoxy-ethyl) ester]
EC50: 200 µM

CC(COc1ccccc1)OC(=S)N(C(=O)c1ccccc1)c1ccccc1 (configuration not stated) [Benzoyl-phenyl-thiocarbamic acid O-(1-methyl-2-phenoxy-ethyl) ester]
EC50: 1.3 µM

O=C(c1ccccc1)N(C(=S)OCCOc1ccccc1)c1ccccc1 [Benzoyl-phenyl-thiocarbamic acid O-(2-phenoxy-ethyl) ester]
EC50: 8 µM

O=C(c1ccccc1)N(C(=S)OCCSc1ccccc1)c1ccccc1 [Benzoyl-phenyl-thiocarbamic acid O-(2-phenylsulfanyl-ethyl) ester]
EC50: > 44 µM

O=C1c2ccccc2C(=O)N1CCOC(=S)N(C(=O)c1ccccc1)c1ccccc1 [Benzoyl-phenyl-thiocarbamic acid O-[2-(1,3-dioxo-1,3-dihydro-isoindol-2-yl)-ethyl] ester]
EC50: 0.4 µM
